Source: US9279803B2, “Method of identifying patients not suitable for high-dose cyclophosphamide treatment” (The Johns Hopkins University, priority 2006, dated 2016)

Test system: white blood cell count (WBC)
Details: preliminary results
Method: Additionally, ALDH levels in the target peripheral lymphocytes of high-dose cyclophosphamide treatment may render those cells resistant to cyclophosphamide and can lead to worsened clinical outcome or disease relapse. In a series of multiple sclerosis (MS) patients, blood was analyzed to determine the relative levels of aldehyde dehydrogenease. The banked blood was obtained from MS patients prior to treatment with high-dose cyclophosphamide.

## O=P1(N(CCCl)CCCl)NCCCO1 (centres unmarked) [cyclophosphamide]
MS patient who did not respond and relapsed, higher ALDH activity in banked blood
  nadir WBC following high-dose cyclophosphamide treatment: 24
MS patient who responded, much lower ALDH activity in banked blood
  WBC reached following high-dose cyclophosphamide treatment: 0
